The text below walks through data of PubChem BioAssay AID1259411 (Chemical Carcinogenesis Research Information System (CCRIS), 2018).

Molecules are shown by their SMILES. The source made the active and inactive calls. No rule for the calls is given here.

The test system of this data set is rodent carcinogenicity bioassays, tumor incidence. The data set is described as follows: CCRIS carcinogenicity studies. The conditions noted are these: Route: ORAL, Dose: 0, Dose: 0. Put shortly: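 NCI-built, expert-reviewed records of carcinogenicity and related test outcomes (mutagenicity, tumor promotion/inhibition) compiled from published and report sources, historical span 1985-2011, not updated.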

With `O=C(O)CN(CC(=O)O)CC(=O)O`, the carcinogen call is “inactive; negative” (Species: MOUSE, Strain/Sex: B6C3F1/FEMALE, 2500, 5000 PPM IN DIET (STUDY DURATION: 18 MO), 2500, 5000 PPM IN DIET (STUDY DURATION: 18 MO)); “inactive; negative” (Species: MOUSE, Strain/Sex: B6C3F1/FEMALE, 7500, 15000 PPM IN DIET, 7500, 15000 PPM IN DIET); “inactive; negative” (Species: MOUSE, Strain/Sex: B6C3F1/MALE, 2500, 5000 PPM IN DIET (STUDY DURATION: 18 MO), 2500, 5000 PPM IN DIET (STUDY DURATION: 18 MO)); “active; positive” (Species: MOUSE, Strain/Sex: B6C3F1/MALE, 7500, 15000 PPM IN DIET, 7500, 15000 PPM IN DIET, Tumor Site: Type of Lesion: KIDNEY: MALIGNANT TUMOR); “active; positive” (Species: RAT, Strain/Sex: F344/FEMALE, 200, 2000, 20000 PPM IN DIET (STUDY DURATION: 24 MO), 200, 2000, 20000 PPM IN DIET (STUDY DURATION: 24 MO), Tumor Site: Type of Lesion: URINARY BLADDER: TUMOR, URETER: TUMOR, KIDNEY: TUMOR, Tumor Site: Type of Lesion: URINARY BLADDER: TUMOR, URETER: TUMOR, KIDNEY: TUMOR); “equivocal” (Species: RAT, Strain/Sex: F344/FEMALE, 7500, 1500 PPM IN DIET (STUDY DURATION: 18 MO), 7500, 1500 PPM IN DIET (STUDY DURATION: 18 MO), Tumor Site: Type of Lesion: URINARY BLADDER: PAPILLOMA OR SQUAMOUS CELL CARCINOMA OR TRANSITIONAL CELL CARCINOMA). The carcinogen call is “active; positive” (Species: RAT, Strain/Sex: F344/FEMALE, 7500, 15000 PPM IN DIET, 7500, 15000 PPM IN DIET, Tumor Site: Type of Lesion: URINARY BLADDER: MALIGNANT TUMOR); “active; positive” (Species: RAT, Strain/Sex: F344/MALE, 200, 2000, 20000 PPM IN DIET (STUDY DURATION: 24 MO), 200, 2000, 20000 PPM IN DIET (STUDY DURATION: 24 MO), Tumor Site: Type of Lesion: KIDNEY: TUMOR, URETER: TUMOR); “equivocal” (Species: RAT, Strain/Sex: F344/MALE, 7500, 15000 PPM IN DIET (STUDY DURATION: 18 MO), 7500, 15000 PPM IN DIET (STUDY DURATION: 18 MO), Tumor Site: Type of Lesion: KIDNEY: TUBULAR CELL ADENOCARCINOMA OR SARCOMA METASTATIC OR HAMARTOMA, RENAL PELVIS: TRANSIT CELL PAPILLOMA); “inactive; negative” (Species: RAT, Strain/Sex: F344/MALE, 7500, 15000 PPM IN DIET, 7500, 15000 PPM IN DIET); “active; positive” (Species: RAT, Strain/Sex: SPRAGUE-DAWLEY/MALE, 1000 PPM (PURITY NOT REPORTED) IN DRINKING WATER FOR 2 YR, Tumor Site: Type of Lesion: KIDNEY: TUBULAR CELL ADENOMA OR ADENOCARCINOMA).
With `Cc1cccc(C)c1N`, the carcinogen call was “active; positive” (Species: RAT, Strain/Sex: CD/FEMALE, 300, 1000, 3000 PPM IN FEED FOR 102 WK (STUDY DURATION: 104 WK), 300, 1000, 3000 PPM IN FEED FOR 102 WK (STUDY DURATION: 104 WK), Tumor Site: Type of Lesion: SUBCUTANEOUS TISSUE: FIBROMA, FIBROMA OR FIBROSARCOMA, NASAL CAVITY: PAPILLARY ADENOMA, ADENOMA OR PAPILLARY ADENOMA, CA) and “active; positive” (Species: RAT, Strain/Sex: CD/MALE, 300, 1000, 3000 PPM IN FEED FOR 102 WK (STUDY DURATION: 104 WK), 300, 1000, 3000 PPM IN FEED FOR 102 WK (STUDY DURATION: 104 WK), Tumor Site: Type of Lesion: SUBCUTANEOUS TISSUE: FIBROMA, FIBROMA OR NEUROFIBROMA, FIBROMA OR FIBROSARCOMA, NASAL CAVITY: PAPILLARY ADENOMA, CARCINO).
For `Cl`, where the note is “Species: RAT, Strain/Sex: F344/MALE, 0.25, 1, 4% IN DIET FOR 2 YR (STUDY DURATION: 2 YR), 0.25, 1, 4% IN DIET FOR 2 YR (STUDY DURATION: 2 YR)”, the carcinogen call is “inactive; negative”.
On to `CS(=O)(=O)c1ccc([C@@H](O)[C@@H](CO)NC(=O)C(Cl)Cl)cc1`, for which the carcinogen call runs as follows: (Species: RAT, Strain/Sex: F344/FEMALE, 125, 250 PPM IN DRINKING WATER FOR 104 WK (STUDY DURATION: 108 WK), 125, 250 PPM IN DRINKING WATER FOR 104 WK (STUDY DURATION: 108 WK)) “inactive; negative”; (Species: RAT, Strain/Sex: F344/MALE, 125, 250 PPM IN DRINKING WATER FOR 104 WK (STUDY DURATION: 108 WK), 125, 250 PPM IN DRINKING WATER FOR 104 WK (STUDY DURATION: 108 WK)) “inactive; negative”.
For `O=[N+]([O-])c1ccc2c(c1)Cc1ccccc1-2`, the carcinogen call (Species: RAT, Strain/Sex: WISTAR/MALE, 0.24, 0.95, 2.37 MMOL/KG DIET FOR 11 MO FOLLOWED BY BASAL DIET FOR 13 MO (STUDY DURATION: 24 MO), 0.24, 0.95, 2.37 MMOL/KG DIET FOR 11 MO FOLLOWED BY BASAL DIET FOR 13 MO (STUDY DURATION: 24 MO), Tumor Site: Type of Lesion: LIVER: HEPATOCELLULAR CARCINOMA, FORESTOMACH: SQUAMOUS CELL CARCINOMA, KIDNEY: CARCINOMA, Tumor Site: Type of Lesion: LIVER: HEPATOCELLULAR CARCINOMA, FORESTOMACH: SQUAMOUS CELL CARCINOMA, KIDNEY: CARCINOMA) was “active; positive”.
As to `Cc1cc(O)c(C(C)(C)C)cc1Sc1cc(C(C)(C)C)c(O)cc1C`, the carcinogen call (Species: MOUSE, Strain/Sex: B6C3F1/FEMALE, 250, 500, 1000 PPM IN DIET FOR 2 YR (STUDY DURATION: 104 WK), 250, 500, 1000 PPM IN DIET FOR 2 YR (STUDY DURATION: 104 WK)) was “inactive; negative”; the carcinogen call (Species: MOUSE, Strain/Sex: B6C3F1/MALE, 250, 500, 1000 PPM IN DIET FOR 2 YR (STUDY DURATION: 104 WK), 250, 500, 1000 PPM IN DIET FOR 2 YR (STUDY DURATION: 104 WK)) is “inactive; negative”; the carcinogen call (Species: RAT, Strain/Sex: F344/FEMALE, 500, 1000, 2500 PPM IN DIET FOR 2 YR (STUDY DURATION: 104 WK), 500, 1000, 2500 PPM IN DIET FOR 2 YR (STUDY DURATION: 104 WK)) is “inactive; negative”; the carcinogen call (Species: RAT, Strain/Sex: F344/MALE, 500, 1000, 2500 PPM IN DIET FOR 2 YR (STUDY DURATION: 104 WK), 500, 1000, 2500 PPM IN DIET FOR 2 YR (STUDY DURATION: 104 WK)) is “inactive; negative”.
